This is an account of results in patent publication US9021738B2, “Control of termites, fire ants and carpenter ants” (priority 2008, dated 2015).

Molecules are shown by their SMILES. Where two headings read alike, the source gives them in different places.

For data set [1], the system named is Formosan subterranean termites. Format: in vivo, Coptotermes formosanus. Conditions: for termites killed: 25 mg/liter volume. The protocol:
(§1) Formosan subterranean termites were collected from bucket traps placed in City Park, New Orleans, La. Altogether five colonies designated 1314, 1559, 1732, 1743 and 1756 were used in the tests. After collection, the termites (primarily workers and soldiers) were transferred to plastic boxes with moist spruce slats. The boxes were stored in an incubator maintained at 28° C., 65% RH, and constant darkness. Termites were used within one month of their collection.
(§2) Vapor Toxicity Under Subterranean Conditions. This test was also conducted in the one liter Qorpak™ bottles. A 35 by 40 by 7 mm piece of moist spruce was placed at the bottom of the bottle and covered with 40 g fine-sifted black soil. One hundred termite workers were released into each bottle and allowed to tunnel under the soil and into the wood. After 3 days, a test chemical was applied to a filter paper and suspended from the cap-liner. The chemicals were tested at 10, 25 and 50 mg. […] The test was conducted with termites from 3 colonies and replicated 3 times.
Because in their natural environment the subterranean termites are not expected to be exposed to a chemical in open space, we conducted the next test by placing 100 workers termites in spruce slats covered with a layer of soil, all placed in the same glass bottles. Tests were conducted at 25 mg dose. After 2 days tetrahydrocarvone (both d- and l-isomers) caused 100% mortality.

The subject of data set [2] is drywood termites. Conditions: Petri dish assays, as claimed in prior art; cited from earlier work.
Data set [3] concerns fire ants. In words: Vapor Toxicity Under Subterranean Conditions with fire ants. The format is in vivo, Solenopsis invicta. As to conditions: 25 mg, in 24 hours. As for the experimental part: as §2
The same Vapor Toxicity Under Subterranean Conditions test as described in paragraph [0023] was conducted except that fire ants were employed instead of termites.

The subject of data set [4] is Formosan subterranean termites. In words: Assay for Vapor Toxicity. Format: in vivo, Coptotermes formosanus. The protocol: as §1
Assay for Vapor Toxicity. This test was conducted in 960 ml wide-mouth clear Qorpak™ (All-Pak, Inc.) bottles with PTFE lined caps. A 60 mm diameter glass Petri dish with a moist filter paper and 50 termite workers was placed at the bottom of each bottle. The test chemical was applied to a 1 cm diameter filter paper and suspended with an insect pin from the cap-liner. Each chemical was initially tested at 1 mg in the one liter bottle then at 0.1 and 0.5 mg. Since 0.1 and 0.5 mg doses caused very low and 100% mortality respectively, the final test was carried out at 0.25 mg. Each chemical was tested with different termite colonies and replicated three times. The bottles were placed in the incubator. Mortality was recorded after 1, 2 and 3 days by quickly taking the glass Petri dish with the termites out of the bottle (with a pair of long forceps) and replacing it after removing the dead workers.

Data set [5] concerns carpenter ants. Nature of the data set: Sealed jar test on carpenter ants. The format is in vivo, Camponotus chromaoides. Conditions: one drop (approximately 30 mg) on filter paper in sealed 16 oz jar, within 24 hours. The protocol:
One drop (approximately 30 mg) of tetrahydro l-carvone test compound was applied to filter paper within a sealed jar (16 oz glass jar, 3½ inch diameter, 3⅞ inch high with plastic lids) containing ten carpenter (Camponotus chromaoides) ants per replicate with there being five replicates. Five negative controls with no test compounds were also run. The tetrahydro-1-carvone provided 100% mortality to the carpenter ants within 24 hours while the control produced 6% mortality over the same 24 hour period.

For `C=C(C)C1CC=C(C)[C@@H](O)C1` (stereo partly shown) [carveol], the “efficacy against termites in soil and wood” value (“efficacy against termites” below) in data set [1] is “totally ineffective”. In data set [2], the “mortality of drywood and other termites” value is on record as “high mortality”.

Turning to `CC(C)=CCCC(C)CC=O` (stereo not shown) [citronellal], the “efficacy against termites” value in data set [1] is recorded as “totally ineffective”. Further, in data set [2], the “mortality of drywood and other termites” value was “high mortality”.

With `C=C(C)[C@@H]1CC[C@@H](C)C(=O)C1` [dihydro-l-carvone], the termites killed in data set [1] (in 48 hours) worked out at 100%.

`CC(C)=CCC/C(C)=C/CO` [geraniol]: the “efficacy against termites” value in data set [1] is “totally ineffective”. Further, in data set [2], the “mortality of drywood and other termites” value is “high mortality”.

As for `Cc1ccc(C(C)C)cc1` [p-cymene], the “efficacy against termites” value in data set [1] is listed as “totally ineffective”. For the same compound, the “mortality of drywood and other termites” value in data set [2] is on record as “high mortality”.

In data set [3], `CC(C)[C@@H]1CC[C@@H](C)C(=O)C1` [tetrahydro-d-carvone] came in with a fire ants killed of 100%. Further, the termites killed was 75% in data set [4] (0.25 mg/liter volume, in 3 days) and 100% in data set [4] (0.5 mg/liter volume, in 1 day).

Take `CC(C)[C@@H]1CC[C@@H](C)C(=O)C1` [tetrahydro-l-carvone]: the termites killed is listed as 100% in data set [1] (in 24 hrs) and 100% in data set [4] (1 mg per liter volume, in 1 day). For the same compound, in data set [5], the “mortality to carpenter ants” value is given as 100%.

In turn, `CC(C)[C@@H]1CC[C@@H](C)C(=O)C1` [tetrahydrocarvone] came in with a mortality in data set [1] (25 mg dose, after 2 days, 100 worker termites in spruce slats covered with soil) of 100%.
